Measurements reported in patent US12162872B2, “Cycloalkylurea derivative” (Sumitomo Pharma Co., Ltd., priority 2019, dated 2024).

biological target: T1, Human orexin receptor type 2 (Homo sapiens, UniProt O43614); assay: Test 2: Evaluation of agonist activity for orexin receptor type 2 (aequorin luminescence, intracellular calcium mobilization in CHO cells); assay type: cell-based; details: relative percentage of luminescence for the luminescence (100%) of Orexin A (100 pM); CHO cells transiently expressing human orexin receptor type 2 and apoaequorin; Orexin A Lot. 671009
T1 construct: expressed in transfected cells; host or cells: CHO cells (transient expression)
T1 sequence (O43614 1-444): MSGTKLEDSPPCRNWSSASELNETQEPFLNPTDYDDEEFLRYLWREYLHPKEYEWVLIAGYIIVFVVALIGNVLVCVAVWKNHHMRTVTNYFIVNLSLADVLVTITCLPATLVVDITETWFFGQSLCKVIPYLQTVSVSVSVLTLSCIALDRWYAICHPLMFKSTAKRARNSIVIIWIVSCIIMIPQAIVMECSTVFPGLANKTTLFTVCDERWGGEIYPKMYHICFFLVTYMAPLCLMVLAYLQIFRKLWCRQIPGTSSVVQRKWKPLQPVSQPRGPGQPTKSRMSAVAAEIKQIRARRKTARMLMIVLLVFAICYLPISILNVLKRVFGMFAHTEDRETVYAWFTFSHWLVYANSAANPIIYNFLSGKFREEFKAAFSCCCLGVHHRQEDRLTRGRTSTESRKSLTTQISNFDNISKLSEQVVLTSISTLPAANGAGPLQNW
Outline: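 CHO cells transiently co-expressing the receptor and apoaequorin, incubated 16–22 h, were loaded 2 h at room temperature with 1 μM coelenterazine hcp (final). Compounds in Hanks/20 mM HEPES/0.1% BSA (0.1% DMSO final) were added and the calcium luminescence was read and expressed as % of Orexin A (100 pM).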

| agonist activity (%) | Structure (SMILES) |
| --- | --- |
| 392 | CC(C)CN(C)C1CCN([C@H]2CCCC(F)(F)[C@@H]2NC(=O)N2CCC(C)(c3noc([C@@H]4C[C@@H]4F)n3)CC2)CC1 [Example 157, N-[(1R,6S)-2,2-difluoro-6-{4-[methyl(2-methylpropyl)amino]piperidin-1-yl}cyclohexyl]-4-{5-[(1S,2S)-2-fluorocyclopropyl]-1,2,4-oxadiazol-3-yl}-4-methylpiperidine-1-carboxamide] |
| 389 | CN(CC1CC1)C1CCN([C@H]2CCCC(F)(F)[C@@H]2NC(=O)N2CCC(C)(c3noc([C@@H]4C[C@@H]4F)n3)CC2)CC1 [Example 158, N-[(1R,6S)-6-{4-[(cyclopropylmethyl)(methyl)amino]piperidin-1-yl}-2,2-difluorocyclohexyl]-4-{5-[(1S,2S)-2-fluorocyclopropyl]-1,2,4-oxadiazol-3-yl}-4-methylpiperidine-1-carboxamide] |
| 392 | CN(C1CCC1)C1CCN([C@H]2CCCC(F)(F)[C@@H]2NC(=O)N2CCC(C)(c3noc([C@@H]4C[C@@H]4F)n3)CC2)CC1 [Example 159, N-[(1R,6S)-6-{4-[cyclobutyl(methyl)amino]piperidin-1-yl}-2,2-difluorocyclohexyl]-4-{5-[(1S,2S)-2-fluorocyclopropyl]-1,2,4-oxadiazol-3-yl}-4-methylpiperidine-1-carboxamide] |
| 410 | CCN(C)C1CCN([C@H]2CCCC(F)(F)[C@@H]2NC(=O)N2CCC(C)(c3noc([C@@H]4C[C@@H]4F)n3)CC2)CC1 [Example 160, N-[(1R,6S)-6-{4-[ethyl(methyl)amino]piperidin-1-yl}-2,2-difluorocyclohexyl]-4-{5-[(1S,2S)-2-fluorocyclopropyl]-1,2,4-oxadiazol-3-yl}-4-methylpiperidine-1-carboxamide] |
| 374 | CC(C)N1CC[C@H](N[C@H]2CCCC(F)(F)[C@@H]2NC(=O)N2CCC(C)(c3noc([C@@H]4C[C@@H]4F)n3)CC2)C1 [Example 161, N-[(1R,6S)-2,2-Difluoro-6-{[(3S)-1-(propan-2-yl)pyrrolidin-3-yl]amino}cyclohexyl]-4-{5-[(1S,2S)-2-fluorocyclopropyl]-1,2,4-oxadiazol-3-yl}-4-methylpiperidine-1-carboxamide] |

biological target: T1, Human orexin receptor type 2; assay: Test 1: Evaluation of agonist activity for orexin receptor type 2 (aequorin luminescence, intracellular calcium mobilization in CHO cells); assay type: cell-based; details: relative percentage of luminescence for the luminescence (100%) of Orexin A (100 pM); CHO cells transiently expressing human orexin receptor type 2 and apoaequorin; Orexin A Lot. 641114
Method: Test 1: Evaluation of Agonist Activity for Orexin Receptor Type 2
Human orexin receptor type 2 and apoaequorin were transiently expressed in CHO cells, and the agonist activity was evaluated based on intracellular calcium mobilization with ligand stimulation. The CHO cells transiently-expressed human orexin receptor type 2 and apoaequorin were seeded on a 384-well plate by 2,000 cells/well, and then incubated for 16-22 hours. After the plate was returned to room temperature, Coelenterazine hcp (final concentration: 1 μM) was added to the plate, and the plate was allowed to stand at room temperature for 2 hours. And then, Orexin A (PEPTIDE INSTITUTE, INC., Lot. 641114) or each test compound was added to the plate, and the luminescence of the cells was measured with FDSS7000 (Hamamatsu Photonics K.K.), wherein Orexin A and each test compound were dissolved in DMSO (final concentration: 0.1%), and diluted with a buffer (Hanks, 20 mM HEPES, 0.1% BSA). The agonist activity of each test compound for orexin receptor type 2 was calculated as relative percentage of luminescence for the luminescence (100%) of Orexin A (100 pM).

| agonist activity (%) | Structure (SMILES) |
| --- | --- |
| 137 | Cc1ccc(C2CCN(C(=O)N[C@H]3CCCC[C@@H]3N3CCN(C(C)C)CC3)CC2)cc1 (racemic) [Example 1, rac-4-(4-Methylphenyl)-N-{(1S,2S)-2-[4-(propan-2-yl)piperazin-1-yl]cyclohexyl}piperidine-1-carboxamide] |
| 58 | CCN1CCN([C@H]2CCCC[C@H]2NC(=O)N2CCC(c3ccc(C)cc3)CC2)CC1 (racemic) [Example 2, rac-N-[(1R,2S)-2-(4-ethylpiperazin-1-yl)cyclohexyl]-4-(4-methylphenyl)piperidine-1-carboxamide] |
| 67 | Cc1nc(C2(C)CCN(C(=O)N[C@H]3CCCC[C@@H]3N3CCN(C(C)C)CC3)CC2)no1 (racemic) [Example 3, rac-4-methyl-4-(5-methyl-1,2,4-oxadiazol-3-yl)-N-{(1S,2S)-2-[4-(propan-2-yl)piperazin-1-yl]cyclohexyl}piperidine-1-carboxamide] |
| 62 | CO[C@H]1CCC[C@H](N2CCN(C(C)C)CC2)[C@H]1NC(=O)N1CCC(c2ccc(C)cc2)CC1 (racemic) [Example 4, rac-N-{(1R,2S,6S)-2-methoxy-6-[4-(propan-2-yl)piperazin-1-yl]cyclohexyl}-4-(4-methylphenyl)piperidine-1-carboxamide] |
| 103 | Cc1ccc(C2CCN(C(=O)N[C@H]3CCC[C@@H]3N3CCN(C(C)C)CC3)CC2)cc1 (racemic) [Example 5, rac-4-(4-methylphenyl)-N-{(1S,2S)-2-[4-(propan-2-yl)piperazin-1-yl]cyclopentyl}piperidine-1-carboxamide] |
| 43 | CC(C)N1CCN([C@H]2CCC[C@@H]2NC(=O)N2CCC(C)(c3cc(C4CC4)on3)CC2)CC1 (racemic) [Example 6, rac-4-(5-cyclopropyl-1,2-oxazol-3-yl)-4-methyl-N-{(1S,2S)-2-[4-(propan-2-yl)piperazin-1-yl]cyclopentyl}piperidine-1-carboxamide] |
| 75 | CC(C)N1CCN([C@H]2[C@H](NC(=O)N3CCC(C)(c4noc(C5CC5)n4)CC3)CCCC2(F)F)CC1 (racemic) [Example 7, rac-4-(5-cyclopropyl-1,2,4-oxadiazol-3-yl)-N-{(1R,2S)-3,3-difluoro-2-[4-(propan-2-yl)piperazin-1-yl]cyclohexyl}-4-methylpiperidine-1-carboxamide] |
| 207 | Cc1ccc(C2CCN(C(=O)N[C@@H]3[C@@H](N4CCN(C(C)C)CC4)CCCC3(F)F)CC2)cc1 (racemic) [Example 8, rac-N-{(1R,6S)-2,2-difluoro-6-[4-(propan-2-yl)piperazin-1-yl]cyclohexyl}-4-(4-methylphenyl)piperidine-1-carboxamide] |
| 207 | CC(C)N1CCN([C@H]2CCCC(F)(F)[C@@H]2OC(=O)N2CCC(C)(c3noc(C4CC4)n3)CC2)CC1 (racemic) [Example 9, rac-(1R,6S)-2,2-difluoro-6-[4-(propan-2-yl)piperazin-1-yl]cyclohexyl 4-(5-cyclopropyl-1,2,4-oxadiazol-3-yl)-4-methylpiperidine-1-carboxylate] |
| 213 | Cc1nc(C2(C)CCN(C(=O)O[C@@H]3[C@@H](N4CCN(C(C)C)CC4)CCCC3(F)F)CC2)no1 (racemic) [Example 10, rac-(1R,6S)-2,2-difluoro-6-[4-(propan-2-yl)piperazin-1-yl]cyclohexyl 4-methyl-4-(5-methyl-1,2,4-oxadiazol-3-yl)piperidine-1-carboxylate] |
| 211 | CC(C)N1CCN([C@H]2CCCC(F)(F)[C@@H]2OC(=O)N2CCC(C)(c3cc(C4CC4)on3)CC2)CC1 (racemic) [Example 11, rac-(1R,6S)-2,2-difluoro-6-[4-(propan-2-yl)piperazin-1-yl]cyclohexyl 4-(5-cyclopropyl-1,2-oxazol-3-yl)-4-methylpiperidine-1-carboxylate] |
| 56 | CC(C)N1CCN([C@H]2CCCC(F)(F)[C@@H]2OC(=O)N2CCC(C)(c3ncn(C4CC4)n3)CC2)CC1 (racemic) [Example 13, rac-(1R,6S)-2,2-difluoro-6-[4-(propan-2-yl)piperazin-1-yl]cyclohexyl 4-(1-cyclopropyl-1H-1,2,4-triazol-3-yl)-4-methylpiperidine-1-carboxylate] |
| 62 | CC(C)c1ccc(C2=CCCCC2NC(=O)N2CCC(C)(c3cc(C4CC4)on3)CC2)cn1 (racemic) [Example 15, rac-4-(5-cyclopropyl-1,2-oxazol-3-yl)-4-methyl-N-{2-[6-(propan-2-yl)pyridin-3-yl]cyclohex-2-en-1-yl}piperidine-1-carboxamide] |
| 39 | CC(C)c1ccc(C2=CCCCC2NC(=O)N2CCC(C)(c3noc(C4CC4)n3)CC2)cn1 (racemic) [Example 16, rac-4-(5-cyclopropyl-1,2,4-oxadiazol-3-yl)-4-methyl-N-{2-[6-(propan-2-yl)pyridin-3-yl]cyclohex-2-en-1-yl}piperidine-1-carboxamide] |
| 72 | CCN1CCN([C@H]2CCCC[C@@H]2NC(=O)N2CCC(c3ccc(C)cc3)CC2)CC1 (racemic) [Example 17, rac-N-[(1S,2S)-2-(4-Ethylpiperazin-1-yl)cyclohexyl]-4-(4-methylphenyl)piperidine-1-carboxamide] |
| 73 | CC(C)N1CC=C(C2=CCCCC2NC(=O)N2CCC(C)(c3noc(C4CC4)n3)CC2)CC1 (racemic) [Example 18, rac-4-(5-Cyclopropyl-1,2,4-oxadiazol-3-yl)-4-methyl-N-{2-[1-(propan-2-yl)-1,2,3,6-tetrahydropyridin-4-yl]cyclohex-2-en-1-yl}piperidine-1-carboxamide] |
| 167 | CC(C)N1CCN([C@H]2CCCC(F)(F)[C@@H]2NC(=O)N2CCC(C)(c3noc(C4CC4)n3)CC2)CC1 (racemic) [Example 19, rac-4-(5-Cyclopropyl-1,2,4-oxadiazol-3-yl)-N-{(1R,6S)-2,2-difluoro-6-[4-(propan-2-yl)piperazin-1-yl]cyclohexyl}-4-methylpiperidine-1-carboxamide] |
